Measurements: patent publication US20160185717A1, “COMPOUNDS WITH ANTIBACTERIAL ACTIVITY” (FUNDACIÓN MEDINA. CENTRO DE EXCELENCIA EN INVESTIGACIÓN DE …, priority 2013, published 2016)
≈ marks a conversion by molar mass, not a printed value.

Legend:
E. coli 219 = test: Broth microdilution MIC; format: cell-based, Escherichia coli; settings: E. coli 219, ΔAcrAB::Tn903kan
Method: (§1) Antibacterial activity of compounds MDN-0057, MDN-0058, MDN-0059 and MDN-0060 was evaluated using the broth microdilution methodology. This method is used to determine minimum inhibitory concentrations (MICs) which are defined as the lowest concentration of an antimicrobial compound that will inhibit the visible growth of a microorganism after overnight incubation.
(§2) In the microbroth dilution assay, microorganisms were selected by streaking bacteria culture from a cryovial into Mueller Hinton II (MHII) agar plate(s) and incubate overnight at 37° C. Thereafter, 3 to 5 characteristic fresh colonies were selected and suspended in 25 mL of MHII broth media for 2 hours shaking at 220 rpm. The 2 hour broth cultures were adjusted to an optical density of 0.111 at 660 nm and then diluted to 1:100 in order to obtain assay inoculums.
(§3) The four compounds evaluated were serially diluted in 100% DMSO with a dilution factor of 2 to provide 10 compound concentrations starting at 8 mg/mL.
(§4) For the assays, 90 μL/well of the appropriated diluted inoculum were mixed with 1.6 μL/well of each compound concentration and 8.4 μL/well of MHII broth media, resulting in an additional dilution of these compounds to yield concentrations in the assay wells from 128 μg/mL to 0.25 μg/mL. After that, the assay plates were read in a Tecan Ultraevolution spectrophotometer at 612 nm for T0 (zero time). Then, the plates were statically incubated at 37° C. for 20 hours. After incubation, they were shaken in a DPC Micromix-5 and read again for Tf (final time). Percentage of growth inhibition was calculated using the following normalization:
(§5) % Inhibition=[1-[(TfSample-T0Sample)−(TfBlank-T0blank)/(TfGrowth-T0Growth)−(TfBlank-T0blank)]×100. • Where, • T0 Sample=the absorbance of the strain growth in the presence of sample measured at zero time (before incubation). • Tf Sample=the absorbance of the strain growth in the presence of sample measured at final time (after incubation) • T0 Growth=the absorbance of the strain growth in the absence of sample measured at zero time (before incubation). • Tf Growth=the absorbance of the strain growth in the absence of sample measured at final time (after incubation). • T0 Blank=the absorbance of the broth medium (blank) measured at zero time (before incubation). • Tf Blank=the absorbance of the broth medium (blank) measured at final time (after incubation).

E. coli ATCC 25922 = test: Broth microdilution MIC; format: cell-based, Escherichia coli; settings: E. coli ATCC 25922, wild type
Method: as §1, §2, §3, §4, §5

A. baumannii 2443 = test: Broth microdilution MIC; format: cell-based, Acinetobacter baumannii; settings: A. baumannii 2443, Clinical isolate
Method: as §1, §2, §3, §4, §5

A. baumannii 2444 = test: Broth microdilution MIC; format: cell-based, Acinetobacter baumannii; settings: A. baumannii 2444, ΔadellJK
Method: as §1, §2, §3, §4, §5

A. baumannii 2445 = test: Broth microdilution MIC; format: cell-based, Acinetobacter baumannii; settings: A. baumannii 2445, ΔadeABC
Method: as §1, §2, §3, §4, §5

A. baumannii 2446 = test: Broth microdilution MIC; format: cell-based, Acinetobacter baumannii; settings: A. baumannii 2446, ΔadeABC, ΔadellJK
Method: as §1, §2, §3, §4, §5

A. baumannii 5973 = test: Broth microdilution MIC; format: cell-based, Acinetobacter baumannii; settings: A. baumannii 5973, Clinical isolate
Method: as §1, §2, §3, §4, §5

A. baumannii ATCC 19606 = test: Broth microdilution MIC; format: cell-based, Acinetobacter baumannii; settings: A. baumannii ATCC 19606, Clinical isolate
Method: as §1, §2, §3, §4, §5

[1] = test system: A. baumannii ATCC BAA-747; test: Broth microdilution MIC; format: cell-based, Acinetobacter baumannii; settings: A. baumannii ATCC BAA-747, Clinical isolate
Method: as §1, §2, §3, §4, §5

P. aeruginosa 839 = test: Broth microdilution MIC; format: cell-based, Pseudomonas aeruginosa; settings: P. aeruginosa 839, ΔMexAB-OprM
Method: as §1, §2, §3, §4, §5

P. aeruginosa ATCC 27853 = test: Broth microdilution MIC; format: cell-based, Pseudomonas aeruginosa; settings: P. aeruginosa ATCC 27853, wild type
Method: as §1, §2, §3, §4, §5

K. pneumoniae 21 = test: Broth microdilution MIC; format: cell-based, Klebsiella pneumoniae; settings: K. pneumoniae 21, permeable strain
Method: as §1, §2, §3, §4, §5

K. pneumoniae 847 = test: Broth microdilution MIC; format: cell-based, Klebsiella pneumoniae; settings: K. pneumoniae 847, Clinical isolate
Method: as §1, §2, §3, §4, §5

S. aureus ATCC 29213 = test: Broth microdilution MIC; format: cell-based, Staphylococcus aureus; settings: for MIC: S. aureus ATCC 29213, wild type
Method: as §1, §2, §3, §4, §5

[2] = test system: Escherichia coli acrAB::Tn903 (CB-219); test: Micro RI (resistance) bioassay on E. coli CB-219; format: cell-based
Method: (§6) The frequency of resistance to MDN-0057 and MDN-0058 was assessed on Escherichia coli acrAB::Tn903 (CB-219) and wild type (WT) Acinetobacter baumannii (ATCC BAA-747). For this purpose, the Minimum Inhibitory Concentration of MDN-0057 versus each strain was determined by broth microdilution as described in Clinical Laboratory Standards Institute publication M07-A9, Vol. 32, No. 2., “Methods for Dilution Antimicrobial Susceptibility Tests for Bacteria that Grow Aerobically; Approved Standard—Ninth Edition,” January 2012. Six-well plates containing Mueller Hinton II agar (5 mL per well) were prepared with MDN-0057 or MDN-0058 at concentrations 4-fold and 8-fold above the MIC. Cultures were grown to late log phase and spread on the agar. Plates were incubated at 37° C. and examined after one and two days of incubation.
(§7) Six to eight isolates from each species were obtained by re-streaking growth from the plates on antibiotic-free tryptic soy agar plates, and MICs of MDN-0057 versus the isolates were subsequently determined. MICs of the E. coli isolates were elevated at least 16-64-fold relative to their parent strain, CB-219.

[3] = test system: wild type (WT) Acinetobacter baumannii (ATCC BAA-747); test: Resistance bioassay on A. baumannii; format: cell-based
Method: as §6, §7

[4] = test system: RNA synthesis in E. coli acrAB::Tn903; test: Macromolecular labeling assay, RNA synthesis; format: cell-based, Escherichia coli; settings: at up to 8-fold the MIC, [3H] uridine
Method: (§8) The macromolecular synthesis assay, in which the inhibition of the intracellular building blocks of macromolecules are measured, provides guidance for understanding the broad MOA of compounds
(§9) The inhibitory effect on synthesis of macromolecules in the lipid, cell wall, DNA, RNA and protein synthesis pathways was determined in growing cells of E. coli acrAB::Tn903. Cells were grown at 35° C. overnight on Trypticase Soy agar, and this culture was used to inoculate 15 ml of Mueller Hinton broth II (MHB). The culture was grown to early exponential growth phase (OD600=0.2 to 0.3) while incubating in a shaker at 35° C. and 200 rpm.
(§10) Cells in early exponential phase were exposed to MDN-0057, and their incorporation of radioactive precursors in each pathway was determined. Rifampicin, Ciprofloxacin, Tetracycline, Imipenem and Irgasan were included as positive controls for inhibition of RNA, DNA, protein, cell wall and lipid synthesis, respectively. (FIG. 1)
(§11) DNA, RNA, and protein synthesis: When cells reached early exponential phase, 100 μL of culture was added to triplicate wells containing various concentrations of MDN-0057 or control antibiotics (2.5 μL) at 40× the final concentration in 100% DMSO or deionized water (dH2O). […] After washing five times with 200 μL per well of cold 5% TCA, the filters were allowed to dry, and then counted using a Packard Top Count microplate scintillation counter.

[5] = test system: DNA synthesis in E. coli acrAB::Tn903; test: Macromolecular labeling assay, DNA synthesis; format: cell-based, Escherichia coli; settings: at up to 8-fold the MIC, [3H] thymidine
Method: as §8, §9, §10, §11

[6] = test system: protein synthesis in E. coli acrAB::Tn903; test: Macromolecular labeling assay, protein synthesis; format: cell-based, Escherichia coli; settings: at up to 8-fold the MIC, [3H] leucine
Method: as §8, §9, §10, §11

[7] = test system: lipid synthesis in E. coli acrAB::Tn903; test: Macromolecular labeling assay, lipid synthesis; format: cell-based, Escherichia coli; settings: at up to 8-fold the MIC, [3H] glycerol
Method: as §8, §9, §10
Lipid synthesis: Bacterial cells were grown to early exponential growth phase in MHB and 100 μL was added to 1.5 mL eppendorf tubes (in triplicate) containing various concentrations of MDN-0057 or control antibiotics as described above. Following a 5 min incubation at room temperature, [3H] glycerol was added at 0.5 μCi per reaction. […] Samples were then counted via liquid scintillation counting.

[8] = test system: cell wall synthesis in E. coli acrAB::Tn903; test: Macromolecular labeling assay, cell wall synthesis; format: cell-based, Escherichia coli
Method: as §8, §9
Cells in early exponential phase were exposed to MDN-0057, and their incorporation of radioactive precursors in each pathway was determined. […]
Cell wall synthesis: Bacterial cells in early exponential growth phase were transferred to M9 minimal medium and added to 1.5 ml eppendorf tubes (100 μl/tube) containing various concentrations of MDN-0057 or control antibiotics (2.5 μl) at 40× the final concentration in 100% DMSO or dH2O as described above. […] After washing three times with 5 ml of 0.1% SDS, the filters were rinsed two times with 5 mL of dH2O, allowed to dry, and then counted using a Beckman LS3801 liquid scintillation counter.

[9] = E. coli_219, Micro RI, Isolate #1_4X
[10] = E. coli_219, Micro RI, Isolate #2_8X
[11] = E. coli_219, Micro RI, Isolate #3_4X
[12] = E. coli_219, Micro RI, Isolate #4_4X
[13] = E. coli_219, Micro RI, Isolate #5_8X
[14] = six to eight isolates re-streaked from the plates

Row | Compound | MIC (E. coli 219) | MIC (E. coli ATCC 25922) | MIC (A. baumannii 2443) | MIC (A. baumannii 2444) | MIC (A. baumannii 2445) | MIC (A. baumannii 2446) | MIC (A. baumannii 5973) | MIC (A. baumannii ATCC 19606) | MIC [1] | MIC (P. aeruginosa 839) | MIC (P. aeruginosa ATCC 27853) | MIC (K. pneumoniae 21) | MIC (K. pneumoniae 847) | MIC against S. aureus (No activity) (S. aureus ATCC 29213) | MIC (S. aureus ATCC 29213) | MIC [2, 9] | MIC [2, 10] | MIC [2, 11] | MIC [2, 12] | MIC [2, 13] | other results
1 | [C-]#[N+]C(=C)C(Cc1ccc(OC)cc1)([N+]#[C-])C1CC(O)C=CC1OC(=O)CO (centres unmarked) [MDN-0058] | 0.25 to 0.5 µg/mL | 16 µg/mL (≈ 41.8 µM) | 2 µg/mL (≈ 5.23 µM) | 0.25 to 1 µg/mL | 2 to 8 µg/mL | <0.06 µg/mL | 0.25 µg/mL (≈ 0.654 µM) | 2 to 8 µg/mL | 1 to 16 µg/mL | 1 to 4 µg/mL | 64 µg/mL (≈ 167 µM) | 0.5 µg/mL (≈ 1.31 µM) | 64 µg/mL (≈ 167 µM) | 128 µg/mL (≈ 335 µM) | >128 µg/mL | 0.25 µg/mL (≈ 0.654 µM) | 0.25 µg/mL (≈ 0.654 µM) | 0.25 µg/mL (≈ 0.654 µM) | 0.25 µg/mL (≈ 0.654 µM) | 0.25 µg/mL (≈ 0.654 µM) | MIC ([2]; E. coli_219, Parent): 0.25 to 0.5 µg/mL
2 | [C-]#[N+]C(=C)C(Cc1ccc(OC)cc1)([N+]#[C-])C1CC(O)C=CC1OC(C)=O (centres unmarked) [MDN-0060] | – | – | – | – | – | – | 1 to 2 µg/mL | – | – | – | 32 to 64 µg/mL | – | – | – | – | – | – | – | – | – | –
3 | [C-]#[N+]C(=C)C(Cc1ccc(OC)cc1)([N+]#[C-])C1CC(O)CCC1OC(=O)CO (centres unmarked) [MDN-0057] | 0.125 to 0.5 µg/mL | 16 to 64 µg/mL | 4 µg/mL (≈ 10.4 µM) | 0.25 µg/mL (≈ 0.65 µM) | 2 µg/mL (≈ 5.2 µM) | <0.06 µg/mL | 0.25 µg/mL (≈ 0.65 µM) | 2 to 4 µg/mL | 2 to 4 µg/mL | 1 to 2 µg/mL | 2 to 8 µg/mL | 0.25 µg/mL (≈ 0.65 µM) | 64 µg/mL (≈ 166 µM) | 128 µg/mL (≈ 333 µM) | >128 µg/mL | 0.25 µg/mL (≈ 0.65 µM) | 0.25 µg/mL (≈ 0.65 µM) | 0.25 µg/mL (≈ 0.65 µM) | 0.25 µg/mL (≈ 0.65 µM) | 0.25 µg/mL (≈ 0.65 µM) | Growth on agar containing compound (frequency of resistance) ([2]; E. coli acrAB::Tn903, 4-fold and 8-fold above the broth MIC, after 48 hours of incubation): pinpoint colonies that were too numerous to count; MIC ([2]; E. coli_219, Parent): 0.125 to 0.5 µg/mL; Elevation of MICs of the E. coli isolates relative to parent strain CB-219 [2, 14]: 16-64 fold; Growth on agar containing compound (frequency of resistance) ([3]; A. baumannii, 4-fold and 8-fold above the broth MIC, after 24 hours of incubation): a lawn of colonies was apparent; MICs of the A. baumannii isolates compared with parent strain A. baumannii BAA-747 [3, 14]: not significantly different; Inhibition of RNA synthesis [4]: Little or no inhibition; Inhibition of DNA synthesis [5]: Little or no inhibition; Inhibition of protein synthesis [6]: Little or no inhibition; Inhibition of lipid synthesis [7]: Little or no inhibition; Maximum inhibition of cell wall synthesis ([8]; at 2 to 8-fold the MIC, [14C] N-acetylglucosamine, apparent dose-response): ca. 75%; Inhibition of Macromolecular Synthesis (FIG. 1 legend) ([8]; at 2× MIC, strain E. coli acrAB::Tn903): signal for Cell Wall Biosynthesis
4 | [C-]#[N+]C(=C)C(Cc1ccc(OC)cc1)([N+]#[C-])C1CC(O)CCC1OC(C)=O (centres unmarked) [MDN-0059] | – | – | – | – | – | – | 0.5 to 1 µg/mL | – | – | – | 16 µg/mL (≈ 43.4 µM) | – | – | – | – | – | – | – | – | – | –
